Literature values in patent publication US9340307B2, “Stable laquinimod preparations” (priority 2007, dated 2016).

Test system: acute experimental autoimmune encephalomyelitis (aEAE) model
Details: U.S. Pat. No. 6,077,851

## CCN(C(=O)c1c(O)c2c(Cl)cccc2n(C)c1=O)c1ccccc1 [Laquinimod, N-ethyl-N-phenyl-1,2-dihydro-4-hydroxy-5-chloro-1-methyl-2-oxoquinoline-3-carboxamide]
  effectiveness in the aEAE model: effective
